According to article PMC9743128, “Phenotype-based screening rediscovered benzopyran-embedded microtubule inhibitors as anti-neuroinflammatory agents by modulating the tubulin–p65 interaction” (Experimental & Molecular Medicine, 2022):

System: α-tubulin monomers in RAW264.7 cells
Test: Tubulin monomer/polymer isolation and western blot
Assay type: cell-based, murine
Settings: 10 μM for 6 h
Description: To separate soluble tubulin monomers from insoluble tubulin polymers, cells were washed very gently with PBS and incubated for 10 min at room temperature with a microtubule-stabilizing buffer {10% Tris–HCl (pH 6.8) (Acros; #77-86-1), 10% glycerol (Biosesang; GR1018-500-00), 1 mM EGTA (Sigma; E3889), 1 mM MgSO4 (Sigma; M2773), 0.1 mM EDTA (Acros; #409971000), and 1× protease inhibitor cocktail} containing additional 0.1% Triton X-100 (Sigma; T8787). The remaining insoluble tubulin polymers on the culture dish were scraped with microtubule-stabilizing buffer containing an additional 0.5% SDS (Sigma; L3771).

COc1ccc2c(c1O)OC(C)(C)C=C2c1cccc2c1oc1ccccc12 [Compound 8]
Total α-tubulin monomers: increased the total α-tubulin monomers
